## C[C@@H]1CN(c2ccnc([C@@H](C)O)n2)C[C@H](C)N1c1ccnc(N2CCN(C)CC2)n1 [Example 208, 1R-(4-{3R,5S-Dimethyl-4-[2-(4-methyl-piperazin-1-yl)-pyrimidin-4-yl]-piperazin-1-yl}-pyrimidin-2-yl)-ethanol]
  melting point: 181 to 182 °C

## C[C@@H]1CN(c2ncnc(N3CCOCC3)n2)C[C@H](C)N1c1ccnc([C@@H](C)O)n1 [Example 212, 1R-{4-[2R,6S-Dimethyl-4-(4-morpholino-4-yl-[1,3,5]triazin-2-yl)-piperazin-1-yl]-pyrimidin-2-yl}-ethanol]
  melting point: 78 to 82 °C

## COc1nc(C)nc(N2[C@H](C)CN(c3ccnc([C@@H](C)O)n3)C[C@@H]2C)n1 [Example 213, 1R-{4-[4-(4-Methoxy-6-methyl-[1,3,5]triazin-2-yl)-3R,5S-dimethylpiperazin-1-yl]-pyrimidin-2-yl}-ethanol]
  melting point: 161 to 162 °C

## COc1nc(OC)nc(N2[C@H](C)CN(c3ccnc([C@@H](C)O)n3)C[C@@H]2C)n1 [Example 214, 1R-{4-[4-(4,6-Dimethoxy-[1,3,5]triazin-2-yl)-3R,5S-dimethyl-piperazin-1-yl]-pyrimidin-2-yl}-ethanol]
  melting point: 187 to 188 °C

## C[C@@H]1CN(c2ncnc(-c3ccccc3)n2)C[C@H](C)N1c1ccnc([C@@H](C)O)n1 [Example 215]
  melting point: 133 to 134 °C

## COc1nc(CO)nc(N2[C@H](C)CN(c3ccnc([C@@H](C)O)n3)C[C@@H]2C)n1 [Example 236, 1R-{4-[4-(4-Hydroxymethyl-6-methoxy-[1,3,5]triazin-2-yl)-3R,5S-dimethyl-piperazin-1-yl]-pyrimidin-2-yl}-ethanol]
  melting point: 170 to 171 °C

## Cc1nc(C)nc(N2[C@H](C)CN(c3ccnc([C@@H](C)O)n3)C[C@@H]2C)n1 [Example 242, 1R-{4-[4-(4,6-Dimethyl-[1,3,5]triazin-2-yl)-3R,5S-dimethyl-piperazin-1-yl]-pyrimidin-2-yl}-ethanol]
  melting point: 157 to 159 °C

## C[C@@H](O)c1nccc(N2CCc3ccc(S(=O)(=O)N(C)C)cc3C2)n1 [Example 247, (R)-2-[2-(1-Hydroxy-ethyl)-pyrimidin-4-yl]-1,2,3,4-tetrahydro-isoquinoline-7-sulfonic acid dimethylamide]
  melting point: 120.5 to 122 °C

## C[C@@H](O)c1nccc(N2CCc3ncncc3C2)n1 [Example 253]
  melting point: 79 to 82 °C

## C[C@@H](O)c1nccc(N2CCc3nc(C(F)(F)F)ncc3C2)n1 [Example 255]
  melting point: 130 to 132 °C

## C[C@@H](O)c1nccc(N2CCc3nc(N)ncc3C2)n1 [Example 256]
  melting point: 208 to 210 °C

## C[C@@H](O)c1nccc(N2CCc3nc(-c4ccccc4)ncc3C2)n1 [Example 257]
  melting point: 128 to 131 °C

## C[C@@H](O)c1nccc(N2CCc3nc(-c4ccncc4)ncc3C2)n1 [Example 258]
  melting point: 144 to 148 °C

## C[C@@H](O)c1nccc(N2CCn3c(nnc3-c3nc4ccccc4s3)C2)n1 [Example 259, (R)-1-[4-(3-Benzothiazol-2-yl-5,6-dihydro-8H-[1,2,4]triazolo[4,3-a]pyrazin-7-yl)-pyrimidin-2-yl]-ethanol]
  melting point: 216.5 to 218.5 °C

## C[C@@H](O)c1nccc(N2CCn3c(nnc3-c3ccccc3)C2)n1 [Example 260]
  melting point: 161 to 164 °C

## C[C@@H](O)c1nccc(N2CCn3c(nnc3-c3ccc4nccnc4c3)C2)n1 [Example 261]
  melting point: 212 to 215 °C

## C[C@@H](O)c1nccc(N2CCn3c(nnc3-c3cc4ccccc4s3)C2)n1 [Example 262]
  melting point: 224 to 226 °C

## C[C@@H](O)c1nccc(N2CCn3c(nnc3-c3ccc(-c4ccccc4)cc3)C2)n1 [Example 263]
  melting point: 123 to 125 °C

## C[C@@H](OC(=O)Cc1nn(Cc2nc3cc(C(F)(F)F)ccc3s2)c(=O)c2ccccc12)c1nccc(N2CCN(C(=O)/C=C/c3cccs3)CC2)n1 [Example 276, (E)-[4-Oxo-3-(5-trifluoromethyl-benzothiazol-2-ylmethyl)-3,4-dihydro-phthalazin-1-yl]-acetic acid 1R-{4-[4-(3-thiophen-2-yl-acryloyl)-piperazin-1-yl]-pyrimidin-2-yl}-ethyl ester]
  melting point: 105 to 109 °C

## C[C@@H](OC(=O)Cc1nn(Cc2nc3cc(C(F)(F)F)ccc3s2)c(=O)c2ccccc12)c1nccc(N2CCN(c3cnc4ccccc4n3)CC2)n1 [Example 277, (E)-[4-Oxo-3-(5-trifluoromethyl-benzothiazol-2-ylmethyl)-3,4-dihydro-phthalazin-1-yl]-acetic acid 1R-[4-(4-quinoxalin-2-yl-piperazin-1-yl)-pyrimidin-2-yl]-ethyl ester]
  melting point: 108 to 112 °C
